# Read-outs that look alike come from different tables or passages of the source.
# What was measured:
# [1] = molecular target: T1, PLK1 PBD (367-603) (Homo sapiens, UniProt P53350); assay: Fluorescence polarization assay, PLK1 PBD; type: binding
# T1 construct: PLK1 PBD (367-603); purchased BPS Biosciences Inc. (San Diego, Calif.)
# Method: (§1) Fluorescence Polarization Assay
# (§2) Materials were dissolved in DMSO (10 mM) and diluted from 10 nM to 600 μM (maximum of 6% DMSO tolerance in the assay). […] Incubation was carried out at room temperature for 45 minutes. Fluorescence was measured using a DTX 880 plate reader and Multimode Analysis software (Beckman Coulter, Brea, Calif.). […] Each data point was performed in triplicate for every experiment, and experiments were performed at least three times. An IC50 value for each compound was calculated from linear regression analysis of the plots.
# [2] = system: PC3 cells; assay: Cell cycle analysis and BrdU pulse labeling in PC3 cells, FIG. 9-11; type: cell-based
# Method: Analysis of Cell Cycle Progression by FACS
# Serum-Starved Synchronization
# Cells were synchronized in G1 by serum starvation. Briefly, exponentially growing cells were plated overnight. Media (DMEM, 10% FBS, 1% Pen. Strep.) was then removed and replaced with media containing no FBS. Cells were starved for 72 hours then treated for 24 hours with inhibitor. Following treatment, cells were harvested and processed for endpoint experimental analysis.
# Ethanol fixative was removed by centrifugation and the cells were washed with 1 mL ice-cold PBS/1% BSA. Cells were denatured by resuspending in 0.2 mg/mL pepsin in 2N HCl and incubated in 37° C. water bath for 15 minutes. Hydrolysis was then terminated by adding 1 M Invitrogen™ Novex® Tris-Glycine. Cells were then washed with PBS/1% BSA then the primary anti-BrdU antibody (1:100 dilution in TBFP; 0.5% Tween-20, 1% BSA, 1% FBS, PBS) was added and cells were incubated for 25 minutes in the dark, at room temperature. […] Cells were washed once more with PBS/1% BSA and re-suspended in DAPI for 30 minutes before being analyzed by flow cytometry.
# The PLK1 PBD-inhibitors were analyzed further by cell cycle analysis in PC3 cells (FIG. 9). […] To quantify the percentage of cells actively proliferating (synthesizing their DNA) or arrested Bromodeoxyuridine (BrdU) pulse labeling was carried out and analyzed by flow cytometry.
# [3] = molecular target: T2, PLK3 PBD (335-646) (Homo sapiens, UniProt Q9H4B4); assay: Fluorescence polarization assay, PLK3 PBD; conditions: PLK3 PBD binding
# T2 construct: PLK3 PBD (335-646); purchased BPS Biosciences Inc. (San Diego, Calif.)
# T2 sequence (Q9H4B4 335-646): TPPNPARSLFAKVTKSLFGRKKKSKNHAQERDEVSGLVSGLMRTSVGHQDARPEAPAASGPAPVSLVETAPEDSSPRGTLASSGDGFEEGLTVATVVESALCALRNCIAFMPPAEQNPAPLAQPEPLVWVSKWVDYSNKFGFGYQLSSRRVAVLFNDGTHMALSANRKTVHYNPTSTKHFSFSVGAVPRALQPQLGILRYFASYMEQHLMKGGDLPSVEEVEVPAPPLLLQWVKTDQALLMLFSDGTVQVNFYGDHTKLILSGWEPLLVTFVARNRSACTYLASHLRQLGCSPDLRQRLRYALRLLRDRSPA
# Method: as §1, §2
# [4] = system: HeLa cervical cancer cells; assay: Cell viability assay (MTT), HeLa; type: cell-based; conditions: MTT, 72 hours; read-out: HeLa
# Method: HeLa cervical cancer cells were obtained from ATCC (Manassas, Va.). […] Cells were maintained in DMEM (Invitrogen™, Carlsebad, Calif.) supplemented with 10% FBS or Corning© Nu-Serum™ (BD™ Biosciences, Franklin Lakes, N.J.) and 1% penicillin/streptomycin (Invitrogen™) in a humidified incubator and 5% CO2 at 37° C.
# (§3) Exponentially growing cells were plated in 96-well dishes. Dose response curves were used to treat cells for 72 hours with inhibitors. Following the three-day treatment, cell viability was measured using the MTT (3-(4,5-dimethylthiazol-2-yl)-2,5-diphenyltetrazolium bromide) colorimetric assay. Cells were incubated for 3 hours with MTT allowing viable cells to metabolize the tetrazolium dye to a purple colored solution.
# [5] = system: PTEN deficient prostate cancer (PC3) cells; assay: Cell viability assay (MTT), PC3; type: cell-based; conditions: MTT, 72 hours; read-out: PCC-3
# Method: PC3 prostate cancer cells were maintained in DMEM (Invitrogen™, Carlsebad, Calif.) supplemented with 10% FBS or Corning® Nu-Serum™ (BD™ Biosciences, Franklin Lakes, N.J.) and 1% penicillin/streptomycin (Invitrogen™) in a humidified incubator and 5% C02 at 37° C.
# as §3
# [6] = molecular target: T3, full length PLK1 (Homo sapiens, UniProt P53350); assay: PLK1 kinase inhibition assay (CycLex ELISA); type: biochemical; conditions: 7.5 μM ATP, read-out: PLK1 Kinase Inhibitory Act. IC50
# T3 construct: This ELISA assay measures the catalytic activity of full length PLK1 for a defined substrate
# Excerpt: PLK1 Kinase Inhibition Assay
# The CycLex® Polo-like Kinase 1 Assay/Inhibitor Screening Kit was used to measure catalytic inhibition (MBL Life Science, Nagano, Japan). This ELISA assay measures the catalytic activity of full length PLK1 for a defined substrate, which is detected by an anti-phospho-threonine antibody (PPT-07) and peroxidase coupled secondary antibody. […] Peroxidase catalyzes the conversion of the colorless solution to yellow, which was quantified using a DTX 880 plate reader. Absorbance measurements (450 nm) were plotted to calculate activity in each sample, and % inhibition was calculated in the wells relative to activity in the absence of inhibitor.
# [7] = system: KRAS mutant lung cancer (A-549) cells; assay: Cell viability assay (MTT), A-549; type: cell-based; conditions: 72 hours
# Method: (§4) A-549 lung cancer cells were maintained in Hams F-12 1× with glutamine (Corning® Cellgro, Manassas, Va.), and supplemented with 10% FBS or Corning® Nu-Serum™ (BD™ Biosciences, Franklin Lakes, N.J.) and 1% penicillin/streptomycin (Invitrogen™) in a humidified incubator and 5% C02 at 37° C.
# as §3, with “solution. Absorbance measurements (595 nm) were quantified using a DTX 880 plate reader and IC50 values were generated for FLIPs.” for “solution.”
# [8] = system: HCT-116 (p53−/−) colon cancer cells; assay: Cell viability assay (MTT), HCT116 p53-/-; type: cell-based; conditions: 72 hours
# Method: HCT-116 (p53+/+ and −/−) colon cancer cells were maintained DMEM (Invitrogen™, Carlsebad, Calif.) supplemented with 10% FBS or Nu-serum (BD™ Biosciences, Franklin Lakes, N.J.) and 1% penicillin/streptomycin (Invitrogen™) in a humidified incubator and 5% C02 at 37° C.
# as §3, with “solution. Absorbance measurements (595 nm) were quantified using a DTX 880 plate reader and IC50 values were generated for FLIPs.” for “solution.”
# [9] = system: WT Retinal Pigment Epithelial (RPE) cells; assay: Cell viability assay, WT RPE cells; type: cell-based; conditions: FIG. 7, FIG. 8
# Method: as §4, with “Retinal Pigment Epithelial (RPE)” for “A-549 lung cancer”, “1:1 DMEM/Hams” for “Hams”, “(Invitrogen™, Carlsebad, Calif.; Corning®” for “1× with glutamine (Corning®”
# as §3
# [10] = system: mutant (C67V) PLK1 RPE cells; assay: Cell viability assay, PLK1 C67V mutant RPE cells; type: cell-based; conditions: FIG. 6-8
# Method: as §4, with “Retinal Pigment Epithelial (RPE)” for “A-549 lung cancer”, “1:1 DMEM/Hams” for “Hams”, “(Invitrogen™, Carlsebad, Calif.; Corning®” for “1× with glutamine (Corning®”
# as §3
# [11] = PLK1 PBD binding, fluorescence polarization, read-out: PLK1 IC50
# [12] = Table 1, fluorescence polarization, read-out: PLK1 PBD IC50
# T1 sequence (P53350 367-603): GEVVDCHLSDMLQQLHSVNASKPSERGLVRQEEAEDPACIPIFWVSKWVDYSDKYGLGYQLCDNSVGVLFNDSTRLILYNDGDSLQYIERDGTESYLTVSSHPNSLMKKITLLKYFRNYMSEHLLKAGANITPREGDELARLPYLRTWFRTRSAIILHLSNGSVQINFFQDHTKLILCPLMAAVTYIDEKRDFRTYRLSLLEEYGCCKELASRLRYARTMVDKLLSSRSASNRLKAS
# T3 sequence (P53350 whole entry): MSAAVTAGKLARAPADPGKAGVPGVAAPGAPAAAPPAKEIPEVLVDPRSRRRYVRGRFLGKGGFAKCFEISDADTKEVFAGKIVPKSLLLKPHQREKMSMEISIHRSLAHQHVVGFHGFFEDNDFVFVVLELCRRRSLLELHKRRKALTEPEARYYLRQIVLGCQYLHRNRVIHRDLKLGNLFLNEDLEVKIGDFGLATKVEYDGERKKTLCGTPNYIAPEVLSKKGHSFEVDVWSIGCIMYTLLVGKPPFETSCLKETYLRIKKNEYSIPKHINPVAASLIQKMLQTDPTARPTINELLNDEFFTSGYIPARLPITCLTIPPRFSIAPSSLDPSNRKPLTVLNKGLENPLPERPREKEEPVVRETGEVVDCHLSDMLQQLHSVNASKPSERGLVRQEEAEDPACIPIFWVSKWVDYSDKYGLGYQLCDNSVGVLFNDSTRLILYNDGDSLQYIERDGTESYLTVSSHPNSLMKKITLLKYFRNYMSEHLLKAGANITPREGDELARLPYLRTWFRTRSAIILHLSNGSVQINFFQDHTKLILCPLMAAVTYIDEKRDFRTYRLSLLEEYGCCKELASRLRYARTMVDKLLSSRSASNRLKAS
compound,measurement,setting,value
CCCCCCCCc1ccc(C(=O)Nc2ccc(OC)cc2C(=O)O)cc1 [SCCP ID No. 5935],IC50,[1]; [11],5.89 ± 1.25 µM
same,cell cycle phenotype (in words),[2]; 15 μM,G1 delay or arrest
CCCCCCc1ccc(C(=O)Nc2ccccc2O)cc1 [SCCP ID No. 5943],IC50,[1]; [11],> 600 µM
same,binding to the PLK1 PBD (in words),[1]; fluorescence polarization,No binding was observed
CCCCCCc1ccc(C(=O)Nc2ccc(C)cc2C(=O)O)cc1 [SCCP ID No. 5924],IC50,[1]; [11],> 600 µM
same,binding to the PLK1 PBD (in words),[1]; fluorescence polarization,no binding to PLK1
same,IC50,[3],24.5 µM
CCCCCCCCc1ccc(C(=O)Nc2cccc(O)c2C(=O)O)cc1 [SCCP ID No. 5946],IC50,[4],33.6 ± 2.6 µM
same,IC50,[5],34.2 ± 2.5 µM
CCCCCCc1ccc(C(=O)Nc2ccccc2OP(=O)(O)O)cc1 [SCCP ID No. 5940],IC50,[1]; [11],> 600 µM
same,binding to the PLK1 PBD (in words),[1]; fluorescence polarization,No binding was observed
CCCCCCCCc1ccc(C(=O)Nc2cc(F)cc(F)c2C(=O)O)cc1 [SCCP ID No. 5938],IC50,[1]; [11],30.6 ± 3.2 µM
CCCCCCCCc1ccc(C(=O)Nc2cccc(F)c2C(=O)O)cc1 [SCCP ID No. 5932],IC50,[1]; [11],11.1 ± 1.1 µM
same,IC50,[6],48.9 µM
same,IC50,[5],11.6 ± 1.2 µM
same,IC50,[7],2.9 ± 0.5 µM
same,IC50,[8],10 ± 2.4 µM
same,sensitivity of cells containing wild type PLK1 (in words),[9],sensitive
same,sensitivity of cells containing mutant (C67V) PLK1 (in words),[10],sensitive
CCCCCCc1ccc(C(=O)Nc2ncccc2C(=O)O)cc1 [SCCP ID No. 5904],IC50,[1]; [12],> 600 µM
CCCCCCCCc1ccc(C(=O)NCC(C)C(=O)O)cc1 (centres unmarked) [SCCP ID No. 5976],IC50,[1]; [12],343 to 450 µM
"CC[C@@H]1C(=O)N(C)c2cnc(Nc3ccc(C(=O)NC4CCN(C)CC4)cc3OC)nc2N1C1CCCC1 [BI-2536, reference compound]",sensitivity of cells containing mutant (C67V) PLK1 (in words),[10],resistant
same,cells accumulate in G2/M,[2]; concentration not given,~80%
CCCCc1ccc(C(=O)Nc2ccc(C(=O)O)cc2)cc1 [SCCP ID No. 5880],IC50,[1]; [11],> 600 µM
same,binding to the PLK1 PBD (in words),[1]; fluorescence polarization,did not bind
CCCCCCc1ccc(C(=O)Nc2ccccc2C(=O)O)cc1 [SCCP ID No. 5881],binding to the PLK1 PBD (in words),[1]; fluorescence polarization,low micromolar activity
